Measurements published in US7273880B2, “Selective NPY (Y5) antagonists” (H. Lunbeck A/S, priority 1999, dated 2007).

Assays:
[1] = target: T1, human Y5 receptor (hNPY-5) (Homo sapiens, UniProt Q15761); experiment: Radioligand binding to membranes, cloned human Y5 receptor; details: cloned human NPY Y5 receptor, radioligand competition binding; Tables 1-3; read-out: Ki, nM hNPY-5
T1 construct: expressed in transfected cells; host or cells: mouse fibroblast LM(tk-) cells, e.g. L-hY5-7 (ATCC CRL-11995)
T1 sequence (Q15761 1-445): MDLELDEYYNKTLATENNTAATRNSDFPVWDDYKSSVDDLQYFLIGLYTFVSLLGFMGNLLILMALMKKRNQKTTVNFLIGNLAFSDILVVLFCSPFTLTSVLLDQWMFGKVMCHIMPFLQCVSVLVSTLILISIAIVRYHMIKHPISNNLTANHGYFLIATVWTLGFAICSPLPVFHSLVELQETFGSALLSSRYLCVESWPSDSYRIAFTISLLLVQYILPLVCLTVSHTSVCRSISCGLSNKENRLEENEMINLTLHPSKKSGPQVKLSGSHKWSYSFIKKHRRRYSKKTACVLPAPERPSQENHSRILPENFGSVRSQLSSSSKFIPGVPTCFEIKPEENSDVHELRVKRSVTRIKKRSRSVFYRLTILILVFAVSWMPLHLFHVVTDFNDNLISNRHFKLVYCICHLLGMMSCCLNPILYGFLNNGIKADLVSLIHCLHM
Outline: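 Competition binding on membranes from stably transfected 293 or LM(tk-) cells, with 0.08 nM ¹²⁵I-PYY in pH 7.4 HEPES buffer plus 0.1% BSA, 120 min at 30 °C, filtration and counting. Nonspecific binding defined by 300 nM human NPY, or 100 nM human PP for Y4; nonlinear regression.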

[2] = target: hNPY-1,2,4 (human Y1, Y2, Y4 receptors); experiment: Radioligand binding to membranes, cloned human Y1, Y2 and Y4 receptors; details: one bound given for all three
Protocol: Binding of the compounds of the present invention to human Y1, Y2, Y4, and Y5 receptors was evaluated using stably transfected 293 or LM(tk-) cells as described above. Stably transfected cell lines which may be used for binding assays include, for example, for the human Y1 receptor, 293-hY1-5 (deposited Jun. 4, 1996, under ATCC Accession No. CRL-12121), for the human Y2 receptor, 293-hY2-10 (deposited Jan. 27, 1994, under ATCC Accession No. CRL-11537), for the human Y4 receptor, L-hY4-3 (deposited Jan. 11, 1995, under ATCC Accession No. CRL-11779), and for human Y5 receptor, L-hY5-7 (deposited Nov. 15, 1995, under ATCC Accession No. CRL-11995). These cell lines were deposited with the American Type Culture Collection (ATCC), 10801 University Blvd., Manassas, Va. 20110-2209, U.S.A. under the provisions of the Budapest Treaty for the International Recognition of the Deposit of Microorganisms for the Purposes of Patent Procedure.
Membranes were harvested from COS-7 cells 48 hours after transient transfection. Adherent cells were washed twice in ice-cold phosphate buffered saline (138 mM NaCl, 8.1 mM Na2HPO4, 2.5 mM KCl, 1.2 mM KH2PO4, 0.9 mM CaCl2, 0.5 mM MgCl2, pH 7.4) and lysed by sonication in ice-cold sonication buffer (20 mM Tris-HCl, 5 mM EDTA, pH 7.7). Large particles and debris were cleared by low speed centrifugation (200×g, 5 min, 4° C.). Membranes were collected from the supernatant fraction by centrifugation (32,000×g, 18 min, 4° C.), washed with ice-cold hypotonic buffer, and collected again by centrifugation (32,000×g, 18 min, 4° C.). The final membrane pellet was resuspended by sonication into a small volume of ice-cold binding buffer (˜1 ml for every 5 plates: 10 mM NaCl, 20 mM HEPES, 0.22 mM KH2PO4, 1.26 mM CaCl2, 0.81 mM MgSO4, pH 7.4). Protein concentration was measured by the Bradford method (Bradford, 1976) using Bio-Rad Reagent, with bovine serum albumin as a standard. Membranes were held on ice for up to one hour and used fresh, or flash-frozen and stored in liquid nitrogen.
Membranes were prepared similarly from 293, LM(tk-), and NIH-3T3 cells. To prepare membranes from baculovirus infected cells, 2×10^7 Sf21 cells were grown in 150 mm tissue culture dishes and infected with a high-titer stock of hY5BB3. Cells were incubated for 2-4 days at 27° C., no CO2 before harvesting and membrane preparation as described above.
Membrane suspensions were diluted in binding buffer supplemented with 0.1% bovine serum albumin to yield an optimal membrane protein concentration so that ^125I-PYY (or alternative radioligand such as ^125I-NPY, ^125I-PYY3-36, or ^125I-[Leu^31Pro^34]PYY) bound by membranes in the assay was less than 10% of ^125I-PYY (or alternative radioligand) delivered to the sample (100,000 dpm/sample=0.08 nM for competition binding assays). ^125I-PYY (or alternative radioligand) and peptide competitors were also diluted to desired concentrations in supplemented binding buffer. Individual samples were then prepared in 96-well polypropylene microtiter plates by mixing 125I-PYY (25 μL) (or alternative radioligand), competing peptides or supplemented binding buffer (25 μL), and finally, membrane suspensions (200 μL). Samples were incubated in a 30° C. water bath with constant shaking for 120 min. Incubations were terminated by filtration over Whatman GF/C filters (pre-coated with 1% polyethyleneimine and air-dried before use), followed by washing with 5 mL of ice-cold binding buffer. Filter-trapped membranes were impregnated with MeltiLex solid scintillant (Wallac, Turku, Finland) and counted for ^125I in a Wallac Beta-Plate Reader. Alternatively, incubations were carried out in GF/C filter plates (pre-coated with 1% polyethyleneimine and air-dried before use), followed by vacuum filtration and three washes of 300 μL of ice-cold binding buffer. 50 μL of UltimaGold (Packard) scintillant were added and counted for ^125I in a Wallac MicroBeta Trilux. […]

For `COC[C@@H]1CCCN1S(=O)(=O)c1ccc(Nc2nc3c(s2)CCCc2ccc(F)cc2-3)cc1` [Example 9, 1-Aza-9-fluoro-4,5-dihydro-2-(4-((2(S)-methoxy-methyl)-pyrrolidine-1-yl)sulfonyl)phenylamino-3-thia-benzo[e]azulene], the Ki [1] was 15.4 nM, the Ki [2] was > 10000 nM and the melting point was 186 to 188 °C.
For `NS(=O)(=O)NCCCCCNc1nc2c(s1)CCCc1ccc(F)cc1-2` [Example 25, 1-Aza-9-fluoro-4,5-dihydro-2-(5-aminosulfonylamino)-pentylamino-3-thia-benzo[e]azulene], the Ki [1] was 2.9 nM and the Ki [2] was > 10000 nM.
In the case of `O=S(=O)(NC[C@H]1CC[C@H](Nc2nc3c(s2)CCCc2ccc(F)cc2-3)CC1)c1ccccc1F` [Example 26, trans-1-aza-9-fluoro-2-(4-(2-fluorophenyl)sulfonyl-amino-methyl)cyclohexylamino-4,5-dihydro-3-thia-benzo [e]-azulene], the Ki [1] is reported as 13.1 nM and the Ki [2] is reported as > 10000 nM.
For `COc1ccc(S(=O)(=O)NC[C@H]2CC[C@H](Nc3nc4c(s3)CCCc3ccc(F)cc3-4)CC2)cc1` [Example 27, trans-1-Aza-9-fluoro-4,5-dihydro-2-{4-(4-methoxy-phenyl)-sulfonylaminomethyl}cyclohexylamino-3-thia-benzo[e]azulene], the Ki [1] was 9.2 nM and the Ki [2] was > 10000 nM.
With `O=S(=O)(NC[C@H]1CC[C@H](Nc2nc3c(s2)CCCc2ccc(F)cc2-3)CC1)c1c(F)cccc1F` [Example 28, trans-N2-(4-(2,6-Difluorophenylsulfonyl)aminomethyl)-cyclohexyl-9-fluoro-5,6-dihydro-4H-benzo[6,7]-cyclohepta-[d][1,3]-thiazol-2-amine] the Ki [1] was 4 nM and the Ki [2] was > 10000 nM.
For `O=S(=O)(Cc1ccccc1)NC[C@H]1CC[C@H](Nc2nc3c(s2)CCCc2ccc(F)cc2-3)CC1` [Example 29, trans-1-Aza-2-{4-benzylsulfonylaminomethyl}-cyclohexylamino-9-fluoro-4,5-dihydro-3-thia-benzo[e]-azulene], the Ki [1] was 10.3 nM and the Ki [2] was > 10000 nM.
In the case of `O=S(=O)(NC[C@H]1CC[C@H](Nc2nc3c(s2)CCCc2ccc(F)cc2-3)CC1)c1cccs1` [Example 30, trans-N2-(4-(2-Thienylsulfonyl)aminomethyl)-cyclohexyl-9-fluoro-5,6-dihydro-4H-benzo[6,7]-cyclohepta[d][1,3]thiazol-2-amine], the Ki [1] is reported as 4.2 nM and the Ki [2] is reported as > 10000 nM.
For `CCS(=O)(=O)NC[C@H]1CC[C@H](Nc2nc3c(s2)CCCc2ccc(F)cc2-3)CC1` [Example 31, trans-N2-(4-Ethylsulfonylaminomethyl)cyclohexyl-9-fluoro-5,6-dihydro-4H-benzo[6,7]cyclohepta[d][1,3]-thiazol-2-amine], the Ki [1] was 3.9 nM and the Ki [2] was > 10000 nM.
With `Cn1cnc(S(=O)(=O)NC[C@H]2CC[C@H](Nc3nc4c(s3)CCCc3ccc(F)cc3-4)CC2)c1` [Example 32, trans-1-Aza-9-fluoro-4,5-dihydro-2-{4-(1-methylimidazolyl-4-yl)sulfonylaminomethyl}cyclohexyl-amino-3-thia-benzo[e]azulene] the Ki [1] was 2.9 nM and the Ki [2] was > 10000 nM.
For `Cc1noc(C)c1S(=O)(=O)NC[C@H]1CC[C@H](Nc2nc3c(s2)CCCc2ccc(F)cc2-3)CC1` [Example 33, trans-1-Aza-9-fluoro-4,5-dihydro-2-{4-(3,5-dimethylisoxazol-4-yl)sulfonylaminomethyl}cyclohexyl-amino-3-thia-benzo[e]azulene], the Ki [1] was 6.8 nM and the Ki [2] was > 10000 nM.
With `O=S(=O)(CC(F)(F)F)NCCCCNc1nc2c(s1)CCCc1ccc(F)cc1-2` [Example 39, 1-Aza-9-fluoro-4,5-dihydro-2-(4-(2,2,2-trifluoroethyl)-sulfonylamino)butylamino-3-thia-benzo[e]azulene] the Ki [1] was 4.8 nM and the Ki [2] was > 10000 nM.
For `O=S(=O)(NC[C@H]1CC[C@H](Nc2nc3c(s2)CCCc2ccc(F)cc2-3)CC1)c1ccc(F)c(F)c1` [Example 40, trans-1-Aza-9-fluoro-2-{4-(3,4-difluorophenyl)-sulfonyl-aminomethyl}cyclohexylamino-4,5-dihydro-3-thia-benzo[e]azulene], the Ki [1] was 19.5 nM and the Ki [2] was > 10000 nM.
For `O=S(=O)(N[C@H]1CC[C@H](CNc2nc3c(s2)CCCc2ccc(F)cc2-3)CC1)c1ccccc1F` [Example 42, trans-1-Aza-9-fluoro-2-{4-(2-fluoro)phenylsulfonyl-amino}-cyclohexylmethylamino-4,5-dihydro-3-thia-benzo[e]azulene], the Ki [1] was 3.9 nM and the Ki [2] was > 10000 nM.
In the case of `COc1ccc(C)cc1S(=O)(=O)NC[C@H]1CC[C@H](Nc2nc3c(s2)CCOc2ccccc2-3)CC1` [Example 48, trans-1-Aza-4,5-dihydro-2-{4-(2-methoxy-5-methyl)phenyl-sulfonylaminomethyl}cyclohexylamino-6-oxa-3-thia-benzo[e]azulene], the Ki [1] is reported as 15.1 nM and the Ki [2] is reported as > 10000 nM.
For `O=S(=O)(N[C@H]1CC[C@H](Nc2nc3c(s2)CCCc2ccc(F)cc2-3)CC1)c1cccnc1` [Example 54, trans-1-Aza-9-fluoro-4,5-dihydro-2-(4-(3-pyridyl-sulfonylamino)cyclohexyl)amino-3-thia-benzo[e]azulene], the Ki [1] was 11.9 nM and the Ki [2] was > 10000 nM.
For `CCN(CC)S(=O)(=O)NC[C@H]1CC[C@H](Nc2nc3c(s2)CCSc2ccccc2-3)CC1` [Example 102, N′-{[4-(4,5-Dihydrobenzo[2,3]thiepino[4,5-d][1,3]thiazol-2-ylamino)cyclohexyl]methyl}-N,N-diethylsulfamide], the Ki [1] was 5.2 nM and the Ki [2] was > 10000 nM.
In the case of `CCN(CC)S(=O)(=O)NCCCCCNc1nc2c(s1)CCSc1ccccc1-2` [Example 103, N′-[5-(4,5-Dihydrobenzo[2,3]thiepino[4,5-d][1,3]thiazol-2-ylamino)pentyl]-N,N-diethylsulfamide], the Ki [1] is reported as 3.7 nM and the Ki [2] is reported as > 10000 nM.
In the case of `CCN(CC)S(=O)(=O)NCCCCNc1nc2c(s1)CCSc1ccccc1-2` [Example 104, N′-[4-(4,5-Dihydrobenzo[2,3]thiepino[4,5-d][1,3]thiazol-2-ylamino)butyl]-N,N-diethylsulfamide], the Ki [1] is reported as 3.2 nM and the Ki [2] is reported as > 10000 nM.
In the case of `CC(C)(C)OC(=O)NCCCCCNc1nc2c(s1)CCSc1ccc(F)cc1-2` [Example 105, tert-Butyl N-{5-[(9-fluoro-4,5-dihydrobenzo[2,3]-thiepino[4,5-d][1,3]thiazol-2-yl)amino]pentyl}-carbamate], the Ki [1] is reported as 91 nM and the Ki [2] is reported as > 10000 nM.
